Assays:
L929 = assay: Antiproliferative activity against mouse L929 cells after 48 hrs by CCK8 assay; format: cell-based; conditions: L929, 48 h
A549 = assay: Antiproliferative activity against human A549 cells after 48 hrs by CCK8 assay; format: functional, cell-based; conditions: A549, 48 h
HeLa = assay: Antiproliferative activity against human HeLa cells after 48 hrs by CCK8 assay; format: functional, cell-based
[1] = Antiproliferative activity against human SMMC7721 cells after 48 hrs by CCK8 assay; format: functional, cell-based; conditions: SMMC-7721, 48 h

SMILES | IC50 (L929) [µM] | IC50 (A549) [µM] | IC50 (HeLa) [µM] | IC50 [1] [µM]
CCCCCCSc1n[nH]c(-n2[se]c3ccccc3c2=O)n1 | 39.3 | 20.3 | 35.9 | 22.4
CC(C)Sc1n[nH]c(-n2[se]c3ccccc3c2=O)n1 | 37.1 | 36.6 | 34.6 | 6.01
Cc1ccccc1CSc1n[nH]c(-n2[se]c3ccccc3c2=O)n1 | 15.6 | 9.72 | 6.13 | 36.2
O=c1c2ccccc2[se]n1-c1nc(SCc2ccc(Cl)cc2)n[nH]1 | 39.5 | 42.1 | 40.9 | 33.9
CCCCSc1n[nH]c(-n2[se]c3ccccc3c2=O)n1 | 30.4 | 12.5 | 32.9 | 16.8
CCSc1n[nH]c(-n2[se]c3ccccc3c2=O)n1 | 35.2 | 39.6 | 14.1 | 10
O=c1c2ccccc2[se]n1-c1nc(SCc2ccccc2)n[nH]1 | > 50 | > 50 | > 50 | 32
CCCCCSc1n[nH]c(-n2[se]c3ccccc3c2=O)n1 | 33.5 | 21.1 | 30.3 | 31.4
CCCSc1n[nH]c(-n2[se]c3ccccc3c2=O)n1 | 31.8 | 45.5 | 30.4 | 6.02
Cc1ccc(CSc2n[nH]c(-n3[se]c4ccccc4c3=O)n2)cc1 | > 50 | > 50 | 34.8 | > 50
Cc1cccc(CSc2n[nH]c(-n3[se]c4ccccc4c3=O)n2)c1 | > 50 | 12.4 | 42.6 | 9.04
O=c1c2ccccc2[se]n1-c1nc(SCc2ccc(F)cc2)n[nH]1 | > 50 | 36.4 | > 50 | 46.1
CC(C)CSc1n[nH]c(-n2[se]c3ccccc3c2=O)n1 | 33.4 | 37.8 | 34.9 | 35
O=c1c2ccccc2[se]n1-c1nc(SCc2ccc([N+](=O)[O-])cc2)n[nH]1 | 7.43 | 9.14 | 3.94 | 8.91
O=c1c2ccccc2[se]n1CCn1[se]c2ccccc2c1=O [ETHASELEN] | > 50 | 3.26 | 15.9 | 10.7
O=c1[nH]cc(F)c(=O)[nH]1 [FLUOROURACIL] | 2.98 | – | 17.2 | –

— ChEMBL document CHEMBL3758108, “Synthesis and antiproliferative evaluation of novel 1,2,4-triazole derivatives incorporating benzisoselenazolone scaffold” (Bioorg Med Chem Lett, 2016)
